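Growth conditions: 96-well plates. Treatment: test compound, 48 hours, 5 concentrations. Analysis: linear interpolation between bracketing concentrations; unreached endpoints set to highest concentration. GI50 marks 50% less growth.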 Active and inactive are the calls of the source. No stated cut-off is given here; in the data, active = GI50 up to about 1.1 µM and inactive = higher.
Assays:
Experiment in all cases: growth of human tumour cells (NCI), 48 h
786-0 = tested on: 786-0
A498 = tested on: A498
A549 = tested on: A549
ACHN = tested on: ACHN
CAKI-1 = tested on: CAKI-1
CCRF-CEM = tested on: CCRF-CEM
COLO 205 = tested on: COLO 205
DLD-1 = tested on: DLD-1
DMS-114 = tested on: DMS-114
DMS-273 = tested on: DMS-273
EKVX = tested on: EKVX
HCC 2998 = tested on: HCC 2998
HCT-15 = tested on: HCT-15
HL-60 = tested on: HL-60
HOP-18 = tested on: HOP-18
HOP-62 = tested on: HOP-62
HOP-92 = tested on: HOP-92
HT-29 = tested on: HT-29
IGROV-1 = tested on: IGROV-1
K562 = tested on: K562
KM-20L2 = tested on: KM-20L2
KM12 = tested on: KM12
LOX IMVI = tested on: LOX IMVI
LXFL 529 = tested on: LXFL 529
M14 = tested on: M14
M19-MEL = tested on: M19-MEL
MOLT-4 = tested on: MOLT-4
Malme-3M = tested on: Malme-3M
NCI-H226 = tested on: NCI-H226
NCI-H23 = tested on: NCI-H23
NCI-H460 = tested on: NCI-H460
NCI-H522 = tested on: NCI-H522
OVCAR-3 = tested on: OVCAR-3
OVCAR-4 = tested on: OVCAR-4
OVCAR-5 = tested on: OVCAR-5
OVCAR-8 = tested on: OVCAR-8
RPMI-8226 = tested on: RPMI-8226
RXF 631 = tested on: RXF 631
SF-268 = tested on: SF-268
SF-295 = tested on: SF-295
SF-539 = tested on: SF-539
SK-MEL-28 = tested on: SK-MEL-28
SK-MEL-2 = tested on: SK-MEL-2
SK-MEL-5 = tested on: SK-MEL-5
SK-OV-3 = tested on: SK-OV-3
SN12C = tested on: SN12C
SNB-19 = tested on: SNB-19
SNB-75 = tested on: SNB-75
SNB-78 = tested on: SNB-78
SW-620 = tested on: SW-620
TK-10 = tested on: TK-10
U-251 = tested on: U-251
UACC-257 = tested on: UACC-257
UACC-62 = tested on: UACC-62
UO-31 = tested on: UO-31
XF498 = tested on: XF498
HCT-116 = tested on: HCT-116
RXF 393 = tested on: RXF 393
SR = tested on: SR

## Cc1ccc(Nc2nc3c(s2)C(=O)c2ccccc2C3=O)cc1
786-0
  GI50: 1.88 µM (inactive)
A498
  GI50: 16.4 µM (inactive)
A549
  GI50: 2.16 µM (inactive)
ACHN
  GI50: 1.75 µM (inactive)
CAKI-1
  GI50: 1.63 µM (inactive)
CCRF-CEM
  GI50: 1.58 µM (inactive)
COLO 205
  GI50: 12.3 µM (inactive)
DLD-1
  GI50: 2.07 µM (inactive)
DMS-114
  GI50: 1.52 µM (inactive)
DMS-273
  GI50: 1.95 µM (inactive)
EKVX
  GI50: 5.14 µM (inactive)
HCC 2998
  GI50: 2.01 µM (inactive)
HCT-15
  GI50: 1.94 µM
HL-60
  GI50: 0.229 µM (active)
HOP-18
  GI50: 1.13 µM (inactive)
HOP-62
  GI50: 7.16 µM (inactive)
HOP-92
  GI50: 2.86 µM (inactive)
HT-29
  GI50: 3.18 µM (inactive)
IGROV-1
  GI50: 1.64 µM (inactive)
K562
  GI50: 2.29 µM (inactive)
KM-20L2
  GI50: 17.5 µM (inactive)
KM12
  GI50: 1.55 µM (inactive)
LOX IMVI
  GI50: 1.58 µM (inactive)
LXFL 529
  GI50: 1.63 µM (inactive)
M14
  GI50: 1.78 µM (inactive)
M19-MEL
  GI50: 0.324 µM (active)
MOLT-4
  GI50: 1.04 µM (active)
Malme-3M
  GI50: 1.92 µM (inactive)
NCI-H226
  GI50: 19.4 µM (inactive)
NCI-H23
  GI50: 1.82 µM (inactive)
NCI-H460
  GI50: 1.94 µM (inactive)
NCI-H522
  GI50: 1.8 µM (inactive)
OVCAR-3
  GI50: 1.52 µM (inactive)
OVCAR-4
  GI50: 1.55 µM (inactive)
OVCAR-5
  GI50: 1.91 µM (inactive)
OVCAR-8
  GI50: 2.18 µM (inactive)
RPMI-8226
  GI50: 1.23 µM (inactive)
RXF 631
  GI50: 1.95 µM (inactive)
SF-268
  GI50: 1.9 µM (inactive)
SF-295
  GI50: 1.6 µM (inactive)
SF-539
  GI50: 5.35 µM (inactive)
SK-MEL-28
  GI50: 1.62 µM (inactive)
SK-MEL-2
  GI50: 1.89 µM (inactive)
SK-MEL-5
  GI50: 1.75 µM (inactive)
SK-OV-3
  GI50: 24.9 µM (inactive)
SN12C
  GI50: 1.92 µM (inactive)
SNB-19
  GI50: 1.79 µM (inactive)
SNB-75
  GI50: 2.14 µM (inactive)
SNB-78
  GI50: 2.49 µM (inactive)
SW-620
  GI50: 1.69 µM (inactive)
TK-10
  GI50: 7.26 µM (inactive)
U-251
  GI50: 1.89 µM (inactive)
UACC-257
  GI50: 1.75 µM (inactive)
UACC-62
  GI50: 1.87 µM (inactive)
UO-31
  GI50: 2.03 µM (inactive)
XF498
  GI50: 1.94 µM (inactive)

## CCSc1nnc(CSc2nc(-c3ccccc3)c(-c3ccccc3)[nH]2)n1-c1ccccc1
786-0
  GI50: 19.8 µM (inactive)
A498
  GI50: 18.5 µM (inactive)
A549
  GI50: 29.9 µM (inactive)
ACHN
  GI50: 17.2 µM (inactive)
CAKI-1
  GI50: 23.7 µM (inactive)
CCRF-CEM
  GI50: 17 µM (inactive)
COLO 205
  GI50: 16.1 µM (inactive)
DLD-1
  GI50: 20.2 µM (inactive)
DMS-114
  GI50: 19 µM (inactive)
DMS-273
  GI50: 23.4 µM (inactive)
EKVX
  GI50: 24.4 µM (inactive)
HCC 2998
  GI50: 20.8 µM (inactive)
HCT-116
  GI50: 18.2 µM (inactive)
HCT-15
  GI50: 18.5 µM
HL-60
  GI50: 25.8 µM (inactive)
HOP-18
  GI50: 13.8 µM (inactive)
HOP-62
  GI50: 20.2 µM (inactive)
HOP-92
  GI50: 20.8 µM (inactive)
HT-29
  GI50: 19.4 µM (inactive)
IGROV-1
  GI50: 20.9 µM (inactive)
K562
  GI50: 25.3 µM (inactive)
KM-20L2
  GI50: 17.9 µM (inactive)
KM12
  GI50: 16.9 µM (inactive)
LOX IMVI
  GI50: 22.9 µM (inactive)
LXFL 529
  GI50: 27.4 µM (inactive)
M14
  GI50: 19 µM (inactive)
M19-MEL
  GI50: 18.6 µM (inactive)
MOLT-4
  GI50: 15.2 µM (inactive)
Malme-3M
  GI50: 20 µM (inactive)
NCI-H226
  GI50: 14.1 µM (inactive)
NCI-H23
  GI50: 21 µM (inactive)
NCI-H460
  GI50: 18.9 µM (inactive)
NCI-H522
  GI50: 16.4 µM (inactive)
OVCAR-3
  GI50: 15.9 µM (inactive)
OVCAR-5
  GI50: 14.5 µM (inactive)
OVCAR-8
  GI50: 21.6 µM (inactive)
RPMI-8226
  GI50: 21.5 µM (inactive)
RXF 393
  GI50: 25.8 µM (inactive)
RXF 631
  GI50: 19.6 µM (inactive)
SF-268
  GI50: 23.3 µM (inactive)
SF-295
  GI50: 23.1 µM (inactive)
SK-MEL-28
  GI50: 21 µM (inactive)
SK-MEL-2
  GI50: 21.7 µM (inactive)
SK-MEL-5
  GI50: 17.1 µM (inactive)
SK-OV-3
  GI50: 26.4 µM (inactive)
SN12C
  GI50: 15.8 µM (inactive)
SNB-19
  GI50: 16.1 µM (inactive)
SNB-75
  GI50: 18.4 µM (inactive)
SNB-78
  GI50: 41.1 µM (inactive)
SR
  GI50: 24.3 µM (inactive)
SW-620
  GI50: 16.6 µM (inactive)
TK-10
  GI50: 22.6 µM (inactive)
U-251
  GI50: 17.9 µM (inactive)
UACC-257
  GI50: 18.6 µM (inactive)
UACC-62
  GI50: 15.3 µM (inactive)
UO-31
  GI50: 17.1 µM (inactive)
XF498
  GI50: 20.3 µM (inactive)

From ChEMBL document CHEMBL1201862, “PubChem BioAssay data set” (2004)
